A word on the IC80: it is the point of the concentration-response curve where the effect stands at 80%. Read a high IC80 as a need for much substance.

This is an account of results in patent US5344959A, “Tetrahydronaphthyl and cyclopropyl substituted 1,3-butadienes having retinoid-like activity” (Allergan, Inc., priority 1993, dated 1994).

Molecules are shown by their SMILES.

Assay [1] concerns ornithine decarboxylase (ODC). The assay can be described thus: inhibition of TPA induction of ornithine decarboxylase (ODC). It is filed as in vivo. To be noted: inhibition of TPA-induced ODC activity; Table 1. The text has this:
The retinoid-like activity of these compounds is confirmed through the classic measure of retinoic acid activity involving the effects of retinoic acid on ornithine decarboxylase. The original work on the correlation-between retinoic acid and decrease in cell proliferation was done by Verma & Boutwell, Cancer Research, 1977, 37,2196-2201. That reference discloses that ornithine decarboxylase (ODC) activity increased precedent to polyamine biosynthesis. It has been established elsewhere that increases in polyamine synthesis can be correlated or associated with cellular proliferation. Thus, if ODC activity could be inhibited, cell hyperproliferation could be modulated. Although all causes for ODC activity increases are unknown, it is known that 12-0-tetradecanoylphorbol-13-acetate (TPA) induces ODC activity. Retinoic acid inhibits this induction of ODC activity by TPA.

For assay [2], the system named is ornithine decarboxylase (ODC). The note with it: general statement, cited from earlier work.

As for `CCOC(=O)[C@@H]1C[C@H]1/C=C/C=C(\C)c1cc2c(cc1C)C(C)(C)CCC2(C)C` (relative stereo) [Compound 7, Ethyl trans-2-[4-methyl-4-(3,5,5,8,8,-pentamethyl-5,6,7,8-tetrahydro-2-naphthyl)-(E),(E) 1-3-butadienyl]-1-cyclopropane carboxylate], in assay [1], the IC80 was found to be 250 nM. This lies in the sub-micromolar range.
In the case of `CCCCCCCCCCCCCC(=O)O[C@@H]1[C@@H](C)[C@@]2(O)[C@@H](C=C(CO)C[C@]3(O)C(=O)C(C)=C[C@@H]23)[C@@H]2C(C)(C)[C@]12OC(C)=O` [12-0-tetradecanoylphorbol-13-acetate], in assay [2] (known), the “induction of ODC activity” value is reported as “induces”.
The compound `CCOC(=O)[C@@H]1C[C@@H]1/C=C/C=C(\C)c1cc2c(cc1C)C(C)(C)CCC2(C)C` (relative stereo) [Compound 5, Ethyl cis-2-[4-methyl-4-(3,5,5,8,8,-pentamethyl-5,6,7,8-tetrahydro-2-naphthyl)-(E),(E) 1-3-butadienyl]-1-cyclopropane carboxylate] registered an IC80 in assay [1] above 300 nM.
Still for that read-out and setting: under `C/C(=C\C=C\[C@H]1C[C@H]1C(=O)O)c1ccc2c(c1)C(C)(C)CCC2(C)C` (relative stereo) [Compound 4, Cis-2-[4-methyl-4-(5,5,8,8,-tetramethyl-5,6,7,8-tetrahydro-2-naphthyl)-(E),(E) 1-3-butadienyl]-1-cyclopropane carboxylic acid] stands 35 nM.
On the same count and under the same terms, the same measure for `C/C(=C\C=C\[C@H]1C[C@H]1C(=O)O)c1cc2c(cc1C)C(C)(C)CCC2(C)C` (relative stereo) [Compound 6, Cis-2-[4-methyl-4-(3,5,5,8,8,-pentamethyl-5,6,7,8-tetrahydro-2-naphthyl)-(E),(E) 1-3-butadienyl]-1-cyclopropane carboxylic acid]: 638 nM; for `CCOC(=O)[C@@H]1C[C@@H]1/C=C/C=C(\C)c1ccc2c(c1)C(C)(C)CCC2(C)C` (relative stereo) [Compound 1, Ethyl cis-2-[4-methyl-4-(5,5,8,8,-tetramethyl-5,6,7,8-tetrahydro-2-naphthyl)-(E),(E) 1-3-butadienyl]-1-cyclopropane carboxylate]: 8.3 nM; for `CCOC(=O)[C@@H]1C[C@H]1/C=C/C=C(\C)c1ccc2c(c1)C(C)(C)CCC2(C)C` (relative stereo) [Compound 2, Ethyl trans 2-[4-methyl-4(5,6,7,8-tetrahyro-5,5,8,8-tetramethyl-2-naphthyl)E,E 1-3 butadienyl] 1-cyclopropane carboxylate]: 2.1 nM.
With `CC1=C(/C=C/C(C)=C/C=C/C(C)=C/C(=O)O)C(C)(C)CCC1` [Retinoic acid], in assay [2] (literature), the “inhibition of induction of ODC activity by TPA” value is given as “inhibits”.
`C/C(=C\C=C\[C@@H]1C[C@H]1C(=O)O)c1ccc2c(c1)C(C)(C)CCC2(C)C` (relative stereo) [Compound 3, Trans-2-[4-methyl-4-(5,5,8,8,-tetramethyl-5,6,7,8-tetrahydro-2-naphthyl)-(E),(E) 1-3-butadienyl]-1-cyclopropane carboxylic acid]: in assay [1], the IC80 came to 2.6 nM. That is a single-digit nanomolar value.
